The record followed here is patent US10745382B2 (BRISTOL-MYERS SQUIBB COMPANY, priority 2015, dated 2020).

In general, IC50 refers to the concentration that gives 50% inhibition.

T1 sequence (Q9NZQ7 with tags, fused parts or gaps): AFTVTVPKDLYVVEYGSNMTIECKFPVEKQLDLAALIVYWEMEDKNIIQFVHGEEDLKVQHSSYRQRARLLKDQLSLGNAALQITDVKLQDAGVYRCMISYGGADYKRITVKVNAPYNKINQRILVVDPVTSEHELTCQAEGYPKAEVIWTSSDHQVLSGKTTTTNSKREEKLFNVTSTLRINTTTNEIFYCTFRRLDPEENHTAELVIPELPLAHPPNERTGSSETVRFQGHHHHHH

One assay has as its target T1, PD-1/PD-L1 (Homo sapiens, UniProt Q9NZQ7).
T1 construct: made in house; host or cells: HEK293T
In words: PD-1/PD-L1 Homogenous Time-Resolved Fluorescence (HTRF) binding assay. The conditions noted are these: PD-L1-His 10 nM, PD-1-Ig 20 nM; numeric IC50; read-out: Range or IC50. The gist of the method:
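Read-out is time-resolved FRET between europium cryptate-labelled anti-Ig (1 nM final) and APC-labelled anti-His (20 nM final), both dispensed onto the binding mix. Assay buffer: dPBS containing 0.1% bovine serum albumin and 0.05% Tween-20.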
With `Cc1c(COc2cc(OCc3cncc(C#N)c3)c(CN[C@@H](CO)C(=O)O)cc2Cl)cccc1-c1ccc2c(c1C)OCCO2` [Example 3043, (2S)-2-((5-chloro-2-((5-cyanopyridin-3-yl)methoxy)-4-((2-methyl-3-(5-methyl-2,3-dihydrobenzo[b][1,4]dioxin-6-yl)benzyl)oxy)benzyl)amino)-3-hydroxypropanoic Acid], the concentration for half-maximal inhibition (IC50) is 3 nM.

The assay is the same for the next values; noted with them: PD-L1-His 10 nM, PD-1-Ig 20 nM; value given as range class; read-out: Range or IC50.
Turning to `Cc1ccc(OCCCN2CC[C@@H](O)C2)c(C)c1-c1cccc(COc2cc(OCc3cncc(C#N)c3)c(C=O)cc2Cl)c1C` [Example 3027, 5-((4-chloro-2-formyl-5-((3′-(3-((R)-3-hydroxypyrrolidin-1-yl)propoxy)-2,2′,6′-trimethyl-[1,1′-biphenyl]-3-yl)methoxy)phenoxy)methyl)nicotinonitrile], the IC50 fell in the range of 10 to 100 nM. Same read-out and setting: for `Cc1ccc(OCCCN2CC[C@@H](O)C2)c(C)c1-c1cccc(COc2cc(OCc3cncc(C#N)c3)c(CN[C@@](C)(CO)C(=O)O)cc2Cl)c1C` [Example 3028, (2S)-2-((5-chloro-2-((5-cyanopyridin-3-yl)methoxy)-4-((3′-(3-((R)-3-hydroxypyrrolidin-1-yl)propoxy)-2,2′,6′-trimethyl-[1,1′-biphenyl]-3-yl)methoxy)benzyl)amino)-3-hydroxy-2-methylpropanoic Acid] the value was 0.21 to 10 nM.

Turning to `Cc1ccc(OCCCN2CC[C@@H](O)C2)c(C)c1-c1cccc(COc2cc(OCc3cncc(C#N)c3)c(CN[C@](C)(CO)C(=O)O)cc2Cl)c1C` [Example 3029, (2R)-2-((5-chloro-2-((5-cyanopyridin-3-yl)methoxy)-4-((3′-(3-((R)-3-hydroxypyrrolidin-1-yl)propoxy)-2,2′,6′-trimethyl-[1,1′-biphenyl]-3-yl)methoxy)benzyl)amino)-3-hydroxy-2-methylpropanoic Acid], the concentration for half-maximal inhibition (IC50) lay within 0.21 to 10 nM.

For the compound `Cc1ccc(OCCCN2CC[C@@H](O)C2)c(C)c1-c1cccc(COc2cc(OCc3cncc(C#N)c3)c(CN3CCCC[C@H]3C(=O)O)cc2Cl)c1C` [Example 3030, (2S)-1-(5-chloro-2-((5-cyanopyridin-3-yl)methoxy)-4-((3′-(3-((R)-3-hydroxypyrrolidin-1-yl)propoxy)-2,2′,6′-trimethyl-[1,1′-biphenyl]-3-yl)methoxy)benzyl)piperidine-2-carboxylic Acid], the concentration for half-maximal inhibition (IC50) was in the range of 0.21 to 10 nM. Consider `Cc1ccc(OCCCN2CC[C@@H](O)C2)c(C)c1-c1cccc(COc2cc(OCc3cncc(C#N)c3)c(CN[C@@H](CO)C(=O)O)cc2Cl)c1C` [Example 3031, (2S)-2-((5-chloro-2-((5-cyanopyridin-3-yl)methoxy)-4-((3′-(3-((R)-3-hydroxypyrrolidin-1-yl)propoxy)-2,2′,6′-trimethyl-[1,1′-biphenyl]-3-yl)methoxy)benzyl)amino)-3-hydroxypropanoic Acid], for which the IC50 was in the range of 0.21 to 10 nM. On to `COc1cc(OCc2cccc(-c3cccc(OCCCN4CC[C@@H](O)C4)c3C)c2C)c(Cl)cc1C=O` [Example 3032, (R)-5-chloro-4-((3′-(3-(3-hydroxypyrrolidin-1-yl)propoxy)-2,2′-dimethyl-[1,1′-biphenyl]-3-yl)methoxy)-2-methoxybenzaldehyde], for which the concentration for half-maximal inhibition (IC50) fell in the range of 100 to 2000 nM. On the same count and under the same terms, as for `COc1cc(OCc2cccc(-c3cccc(OCCCN4CC[C@@H](O)C4)c3C)c2C)c(Cl)cc1CN[C@@](C)(CO)C(=O)O` [Example 3033, (2S)-2-((5-chloro-4-((3′-(3-((R)-3-hydroxypyrrolidin-1-yl)propoxy)-2,2′-dimethyl-[1,1′-biphenyl]-3-yl)methoxy)-2-methoxybenzyl)amino)-3-hydroxy-2-methylpropanoic Acid], the figure is 0.21 to 10 nM; as for `COc1cc(OCc2cccc(-c3cccc(OCCCN4CC[C@@H](O)C4)c3C)c2C)c(Cl)cc1CN[C@](C)(CO)C(=O)O` [Example 3034, (2R)-2-((5-chloro-4-((3′-(3-((R)-3-hydroxypyrrolidin-1-yl)propoxy)-2,2′-dimethyl-[1,1′-biphenyl]-3-yl)methoxy)-2-methoxybenzyl)amino)-3-hydroxy-2-methylpropanoic Acid], 0.21 to 10 nM; as for `COc1cc(OCc2cccc(-c3cccc(OCCCN4CC[C@@H](O)C4)c3C)c2C)c(Cl)cc1CN[C@@H](CO)C(=O)O` [Example 3035, (2S)-2-((5-chloro-4-((3′-(3-((R)-3-hydroxypyrrolidin-1-yl)propoxy)-2,2′-dimethyl-[1,1′-biphenyl]-3-yl)methoxy)-2-methoxybenzyl)amino)-3-hydroxypropanoic Acid], 0.21 to 10 nM. The same measure, in the same setting: as for `COc1cc(OCc2cccc(-c3cccc(OCCCN4CC[C@@H](O)C4)c3C)c2C)c(Cl)cc1CN1CCCC[C@H]1C(=O)O` [Example 3036, (2S)-1-(5-chloro-4-((3′-(3-((R)-3-hydroxypyrrolidin-1-yl)propoxy)-2,2′-dimethyl-[1,1′-biphenyl]-3-yl)methoxy)-2-methoxybenzyl)piperidine-2-carboxylic Acid], the figure is 0.21 to 10 nM. The same measure, in the same setting: for `Cc1c(COc2cc(OCc3cncc(C#N)c3)c(CN[C@@](C)(CO)C(=O)O)cc2Cl)cccc1-c1cccc(OCCCN2CCC(O)(c3ccccc3)C2)c1C` (stereo partly drawn) [Example 3037, (2S)-2-((5-chloro-2-((5-cyanopyridin-3-yl)methoxy)-4-((3′-(3-(3-hydroxy-3-phenylpyrrolidin-1-yl)propoxy)-2,2′-dimethyl-[1,1′-biphenyl]-3-yl)methoxy)benzyl)amino)-3-hydroxy-2-methylpropanoic Acid] the value was 0.21 to 10 nM; for `Cc1c(COc2cc(OCc3cncc(C#N)c3)c(CN[C@](C)(CO)C(=O)O)cc2Cl)cccc1-c1cccc(OCCCN2CCC(O)(c3ccccc3)C2)c1C` (stereo partly drawn) [Example 3038, (2R)-2-((5-chloro-2-((5-cyanopyridin-3-yl)methoxy)-4-((3′-(3-(3-hydroxy-3-phenylpyrrolidin-1-yl)propoxy)-2,2′-dimethyl-[1,1′-biphenyl]-3-yl)methoxy)benzyl)amino)-3-hydroxy-2-methylpropanoic Acid], 0.21 to 10 nM; for `Cc1c(COc2cc(OCc3cncc(C#N)c3)c(CN[C@@H](CO)C(=O)O)cc2Cl)cccc1-c1cccc(OCCCN2CCC(O)(c3ccccc3)C2)c1C` (stereo partly drawn) [Example 3039, (2S)-2-((5-chloro-2-((5-cyanopyridin-3-yl)methoxy)-4-((3′-(3-(3-hydroxy-3-phenylpyrrolidin-1-yl)propoxy)-2,2′-dimethyl-[1,1′-biphenyl]-3-yl)methoxy)benzyl)amino)-3-hydroxypropanoic Acid], 0.21 to 10 nM. Turning to `Cc1c(COc2cc(OCc3cncc(C#N)c3)c(CN3CCCC[C@H]3C(=O)O)cc2Cl)cccc1-c1cccc(OCCCN2CCC(O)(c3ccccc3)C2)c1C` (stereo partly drawn) [Example 3040, (2S)-1-(5-chloro-2-((5-cyanopyridin-3-yl)methoxy)-4-((3′-(3-(3-hydroxy-3-phenylpyrrolidin-1-yl)propoxy)-2,2′-dimethyl-[1,1′-biphenyl]-3-yl)methoxy)benzyl)piperidine-2-carboxylic Acid], the half-maximal inhibitory concentration (IC50) is 0.21 to 10 nM.

`Cc1c(COc2cc(OCc3cncc(C#N)c3)c(CN[C@@](C)(CO)C(=O)O)cc2Cl)cccc1-c1ccc2c(c1C)OCCO2` [Example 3041, (2S)-2-((5-chloro-2-((5-cyanopyridin-3-yl)methoxy)-4-((2-methyl-3-(5-methyl-2,3-dihydrobenzo[b][1,4]dioxin-6-yl)benzyl)oxy)benzyl)amino)-3-hydroxy-2-methylpropanoic Acid]: the IC50 lay within 0.21 to 10 nM. Take `Cc1c(COc2cc(OCc3cncc(C#N)c3)c(CN[C@](C)(CO)C(=O)O)cc2Cl)cccc1-c1ccc2c(c1C)OCCO2` [Example 3042, (2R)-2-((5-chloro-2-((5-cyanopyridin-3-yl)methoxy)-4-((2-methyl-3-(5-methyl-2,3-dihydrobenzo[b][1,4]dioxin-6-yl)benzyl)oxy)benzyl)amino)-3-hydroxy-2-methylpropanoic Acid]: the half-inhibitory concentration (IC50) lay within 0.21 to 10 nM. As for `Cc1c(COc2cc(OCc3cncc(C#N)c3)c(CN3CCCC[C@H]3C(=O)O)cc2Cl)cccc1-c1ccc2c(c1C)OCCO2` [Example 3044, (2S)-1-(5-chloro-2-((5-cyanopyridin-3-yl)methoxy)-4-((2-methyl-3-(5-methyl-2,3-dihydrobenzo[b][1,4]dioxin-6-yl)benzyl)oxy)benzyl)piperidine-2-carboxylic Acid], the IC50 is 0.21 to 10 nM. On the same count and under the same terms, for `Cc1c(COc2cc(OCc3cncc(C#N)c3)c(CN[C@](C)(CO)C(=O)O)cc2Cl)cccc1-c1cc(C#Cc2ccccc2)cc(OCCCN2CC[C@@H](O)C2)c1` [Example 3045, (R)-2-((5-chloro-2-((5-cyanopyridin-3-yl)methoxy)-4-((3′-(3-((R)-3-hydroxypyrrolidin-1-yl)propoxy)-2-methyl-5′-(phenylethynyl)-[1,1′-biphenyl]-3-yl)methoxy)benzyl)amino)-3-hydroxy-2-methylpropanoic Acid] the value was 2010 to 10000 nM; for `Cc1c(COc2cc(OCc3cncc(C#N)c3)c(CN3CCCC[C@H]3C(=O)O)cc2Cl)cccc1-c1cccc(OCCCN2C[C@H]3CC[C@@H](C2)O3)c1C` [Example 3046, (S)-1-(4-((3′-(3-((1R,5S)-8-oxa-3-azabicyclo[3.2.1]octan-3-yl)propoxy)-2,2′-dimethyl-[1,1′-biphenyl]-3-yl)methoxy)-5-chloro-2-((5-cyanopyridin-3-yl)methoxy)benzyl)piperidine-2-carboxylic Acid], 0.21 to 10 nM. As to `Cc1c(COc2cc(OCc3cncc(C#N)c3)c(CN3CCCC[C@H]3C(=O)O)cc2Cl)cccc1-c1cccc(OCCCN2CCO[C@@H](CO)C2)c1C` [Example 3047, (S)-1-(5-chloro-2-((5-cyanopyridin-3-yl)methoxy)-4-((3′-(3-((R)-2-(hydroxymethyl)morpholino)propoxy)-2,2′-dimethyl-[1,1′-biphenyl]-3-yl)methoxy)benzyl)piperidine-2-carboxylic Acid], the 50% inhibitory concentration (IC50) fell in the range of 0.21 to 10 nM.
